The text below walks through data of US8293294B2, “Cosmetic composition comprising an aqueous extract of Chrysophyllum cainito” (Laboratories Clarins, priority 2008, dated 2012).

The experiment relates to CML (carboxymethyl adducts of lysine) induced by glyoxal. Put plainly: Inhibition of glyoxal-induced CML formation in cultured human dermal fibroblasts (immunofluorescence). The class given is cell-based. Conditions: aminoguanidine 10 mM, positive reference, fibroblasts with 200 μM glyoxal for 7 days. The protocol: It is a question of evaluating the inhibitory activity of the extract of Chrysophyllum cainito with respect to CML (carboxymethyl adducts of lysine) induced by glyoxal as well as its protective effect on vimentin, the target of formation of the CMLs, in a culture of human dermal fibroblasts.
Normal adult human fibroblasts were cultivated at 37° C. and 5% CO2 on a cover slip in a Petri dish of diameter 60 at a rate of 30000 cells per cover slip. The incubation medium is DMEM medium (Dulbecco modified Eagle medium) supplemented with 10% fetal calf serum and penicillin/streptomycin (50 μg/ml). […]
The cells were washed with PBS (phosphate-buffered saline) and permeabilized with 0.1% Triton X-100 for 10 minutes. […] Before taking the reading, 4 rinsings with PBS are performed.
The cover slips are mounted on the glass slide and then examined with the fluorescence microscope (Nikon Eclipse 50i). […] The photomicrographs are analyzed using Lucia image analysis software. The FITC fluorescence images indicate the regions of localization of vimentin. The TRITC fluorescence images indicate the regions of localization of CML. The DAPI fluorescence images indicate the cell nuclei and therefore the number of cells per field (see FIGS. 1 to 4).
This intensity of fluorescence is shown relative to the number of cells per micrograph. […]

Take `N=C(N)NN` [Aminoguanidine]: the “inhibition of the formation of carboxymethyl adducts of lysine (CML), intensity of labeling” value is “completely inhibits”. The “inhibition of the formation of carboxymethyl adducts of lysine (CML), intensity of labeling” value (listed as aminoguanidine) is “completely inhibited”.
